Results taken from patent US20240158446A1, “CYCLIC COMPOUND HAVING SELECTIVE INHIBITORY ACTION ON KRAS OVER HRAS AND NRAS” (CHUGAI SEIYAKU KABUSHIKI KAISHA, priority 2021, published 2024).

Tests used:
[1] = target: GDP-bound HRAS wild-type protein (Homo sapiens, UniProt P01112); assay: Binding to HRAS by surface plasmon resonance (SPR), Single Cycle Kinetics; conditions: SPR, GDP-bound HRAS wild-type protein vs GDP-bound KRAS wild-type protein
[2] = target: GDP-bound NRAS wild-type protein (Homo sapiens, UniProt P01111); assay: Binding to NRAS by surface plasmon resonance (SPR), Single Cycle Kinetics; conditions: SPR, GDP-bound NRAS wild-type protein vs GDP-bound KRAS wild-type protein
[3] = target: GDP-bound KRAS wild-type protein (Homo sapiens, UniProt P01116); assay: Binding to KRAS by surface plasmon resonance (SPR), Single Cycle Kinetics; conditions: SPR, Single Cycle Kinetics, GDP-bound KRAS wild-type protein; read-out: KRAS KD
Sequence of GDP-bound KRAS wild-type protein (P01116 whole entry): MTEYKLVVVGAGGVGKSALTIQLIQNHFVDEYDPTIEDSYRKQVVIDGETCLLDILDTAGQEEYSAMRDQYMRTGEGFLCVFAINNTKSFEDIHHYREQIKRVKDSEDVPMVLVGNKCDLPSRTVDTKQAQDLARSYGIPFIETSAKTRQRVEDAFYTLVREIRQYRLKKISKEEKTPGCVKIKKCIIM

Sequence of GDP-bound HRAS wild-type protein (P01112 whole entry): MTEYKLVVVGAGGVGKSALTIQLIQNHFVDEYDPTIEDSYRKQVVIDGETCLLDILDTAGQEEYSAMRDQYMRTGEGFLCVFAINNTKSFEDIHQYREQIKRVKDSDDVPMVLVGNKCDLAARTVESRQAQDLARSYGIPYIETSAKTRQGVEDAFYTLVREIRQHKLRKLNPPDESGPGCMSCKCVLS
Sequence of GDP-bound NRAS wild-type protein (P01111 whole entry): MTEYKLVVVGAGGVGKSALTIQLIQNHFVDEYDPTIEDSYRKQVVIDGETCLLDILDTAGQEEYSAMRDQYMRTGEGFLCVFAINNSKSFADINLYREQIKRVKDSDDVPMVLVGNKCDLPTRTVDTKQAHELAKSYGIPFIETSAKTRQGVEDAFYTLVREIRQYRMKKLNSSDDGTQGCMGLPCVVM

Structure (SMILES)	HRAS/KRAS (ratio of KD value for HRAS to KD value for KRAS) [1]	NRAS/KRAS (ratio of KD value for NRAS to KD value for KRAS) [2]	Kd [3] [nM]
CCO[C@@H]1C[C@H]2C(=O)NC3(CCC3)C(=O)N(C)[C@@H](C3CCCC3)C(=O)N(C)[C@H](C(=O)N(C)C)CC(=O)N(C)[C@@H](CC)C(=O)N[C@@H]([C@@H](C)CC)C(=O)N3CC[C@H]3C(=O)N(C)[C@H]3CC(C)=CCN(C3=O)[C@@H](Cc3ccc(C(F)(F)F)cc3)C(=O)N(C)CC(=O)N[C@@H](CCc3cc(F)c(C(F)(F)F)c(F)c3)C(=O)N2C1 [PP1035]	C (A compound having a KD ratio of 0.1 or more and less than 3 is denoted as C)	C (A compound having a KD ratio of 0.1 or more and less than 3 is denoted as C)	0.52
CCO[C@@H]1C[C@H]2C(=O)NC3(CCCC3)C(=O)N(C)[C@@H](C3CCCC3)C(=O)N(C)[C@H](C(=O)N(C)C)CC(=O)N(C)[C@@H](CC)C(=O)N[C@@H]([C@@H](C)CC)C(=O)N(C)CC(=O)N(C)[C@H]3CC(C)=CCN(C3=O)[C@@H](Cc3ccc(C(F)(F)F)cc3)C(=O)N(C)CC(=O)N[C@@H](CCc3cc(F)c(C(F)(F)F)c(F)c3)C(=O)N2C1 [PP1036]	C (A compound having a KD ratio of 0.1 or more and less than 3 is denoted as C)	C (A compound having a KD ratio of 0.1 or more and less than 3 is denoted as C)	0.75
CCO[C@@H]1C[C@H]2C(=O)NC3(CCCC3)C(=O)N(C)[C@@H](C3CCCC3)C(=O)N(C)[C@H](C(=O)N3CCOCC3)CC(=O)N(C)[C@@H](CC(C)C)C(=O)N[C@@H]([C@@H](C)CC)C(=O)N(C)CC(=O)N(C)[C@H]3CC(C)=CCN(C3=O)[C@@H](Cc3ccc(C(F)(F)F)cc3)C(=O)N(C)CC(=O)N[C@@H](CCc3cc(F)c(C(F)(F)F)c(F)c3)C(=O)N2C1 [PP1038]	C (A compound having a KD ratio of 0.1 or more and less than 3 is denoted as C)	C (A compound having a KD ratio of 0.1 or more and less than 3 is denoted as C)	3
CCO[C@@H]1C[C@H]2C(=O)NC3(CCC3)C(=O)N(C)[C@@H](C3CCCC3)C(=O)N(C)[C@H](C(=O)N3CCOCC3)CC(=O)N(C)[C@@H](CC(C)C)C(=O)N[C@@H]([C@@H](C)CC)C(=O)N3CC[C@H]3C(=O)N(C)[C@H]3CC(C)=CCN(C3=O)[C@@H](Cc3ccc(C(F)(F)F)cc3)C(=O)N(C)CC(=O)N[C@@H](CCc3cc(F)c(C(F)(F)F)c(F)c3)C(=O)N2C1 [PP1040]	C (A compound having a KD ratio of 0.1 or more and less than 3 is denoted as C)	C (A compound having a KD ratio of 0.1 or more and less than 3 is denoted as C)	1.2
CCO[C@@H]1C[C@H]2C(=O)NC3(CCC3)C(=O)N(C)[C@@H](C3CCCC3)C(=O)N(C)[C@H](C(=O)N3CCOCC3)CC(=O)N(C)[C@@H](CC)C(=O)N[C@@H]([C@@H](C)CC)C(=O)N(C)CC(=O)N(C)[C@H]3CC(C)=CCN(C3=O)[C@@H](Cc3ccc(C(F)(F)F)cc3)C(=O)N(C)CC(=O)N[C@@H](CCc3cc(F)c(C(F)(F)F)c(F)c3)C(=O)N2C1 [PP1041]	C (A compound having a KD ratio of 0.1 or more and less than 3 is denoted as C)	C (A compound having a KD ratio of 0.1 or more and less than 3 is denoted as C)	0.57
CCO[C@@H]1C[C@H]2C(=O)NC3(CCC3)C(=O)N(C)[C@@H](C3CCCC3)C(=O)N(C)[C@H](C(=O)N3CCOCC3)CC(=O)N(C)[C@@H](CC)C(=O)N[C@@H]([C@@H](C)CC)C(=O)N3CC[C@H]3C(=O)N(C)[C@H]3CC(C)=CCN(C3=O)[C@@H](Cc3ccc(C(F)(F)F)cc3)C(=O)N(C)CC(=O)N[C@@H](CCc3cc(F)c(C(F)(F)F)c(F)c3)C(=O)N2C1 [PP1042]	C (A compound having a KD ratio of 0.1 or more and less than 3 is denoted as C)	C (A compound having a KD ratio of 0.1 or more and less than 3 is denoted as C)	1.3
CCO[C@@H]1C[C@H]2C(=O)NC3(CCCC3)C(=O)N(C)[C@@H](C3CCCC3)C(=O)N(C)[C@H](C(=O)N3CCOCC3)CC(=O)N(C)[C@@H](CC)C(=O)N[C@@H]([C@@H](C)CC)C(=O)N(C)CC(=O)N(C)[C@H]3CC(C)=CCN(C3=O)[C@@H](Cc3ccc(C(F)(F)F)cc3)C(=O)N(C)CC(=O)N[C@@H](CCc3cc(F)c(C(F)(F)F)c(F)c3)C(=O)N2C1 [PP1043]	C (A compound having a KD ratio of 0.1 or more and less than 3 is denoted as C)	C (A compound having a KD ratio of 0.1 or more and less than 3 is denoted as C)	2.4
CCO[C@@H]1C[C@H]2C(=O)NC3(CCC3)C(=O)N(C)[C@@H](C3CCCC3)C(=O)N(C)[C@H](C(=O)N3CCOCC3)CC(=O)N(CC)[C@@H](CC(C)C)C(=O)N[C@@H]([C@@H](C)CC)C(=O)N(C)CC(=O)N(C)[C@H]3CC(C)=CCN(C3=O)[C@@H](Cc3ccc(C(F)(F)F)cc3)C(=O)N(C)CC(=O)N[C@@H](CCc3cc(F)c(C(F)(F)F)c(F)c3)C(=O)N2C1 [PP1044]	C (A compound having a KD ratio of 0.1 or more and less than 3 is denoted as C)	C (A compound having a KD ratio of 0.1 or more and less than 3 is denoted as C)	1.8
CCO[C@@H]1C[C@H]2C(=O)NC3(CCCC3)C(=O)N(C)[C@@H](C3CCCC3)C(=O)N(C)[C@H](C(=O)N(C)C)CC(=O)N(C)[C@@H](CC(C)C)C(=O)N[C@@H]([C@@H](C)CC)C(=O)N(C)CC(=O)N(C)[C@H]3CC(C)=C(C)CN(C3=O)[C@@H](Cc3ccc(C(F)(F)F)cc3)C(=O)N(C)CC(=O)N[C@@H](CCc3cc(F)c(C(F)(F)F)c(F)c3)C(=O)N2C1 [PP1045]	C (A compound having a KD ratio of 0.1 or more and less than 3 is denoted as C)	C (A compound having a KD ratio of 0.1 or more and less than 3 is denoted as C)	1.7
CCO[C@@H]1C[C@H]2C(=O)NC3(CCC3)C(=O)N(C)[C@@H](C3CCCC3)C(=O)N(C)[C@H](C(=O)N(C)C)CC(=O)N(C)[C@@H](CC(C)C)C(=O)N[C@@H]([C@@H](C)CC)C(=O)N3CC[C@H]3C(=O)N(C)[C@H]3CC(C)=C(C)CN(C3=O)[C@@H](Cc3ccc(C(F)(F)F)cc3)C(=O)N(C)CC(=O)N[C@@H](CCc3cc(F)c(C(F)(F)F)c(F)c3)C(=O)N2C1 [PP1047]	C (A compound having a KD ratio of 0.1 or more and less than 3 is denoted as C)	C (A compound having a KD ratio of 0.1 or more and less than 3 is denoted as C)	0.85
CCO[C@@H]1C[C@H]2C(=O)NC3(CCC3)C(=O)N(C)[C@@H](C3CCCC3)C(=O)N(C)[C@H](C(=O)N(C)C)CC(=O)N(C)[C@@H](CC)C(=O)N[C@@H]([C@@H](C)CC)C(=O)N3CC[C@H]3C(=O)N(C)[C@H]3CC(C)=C(C)CN(C3=O)[C@@H](Cc3ccc(C(F)(F)F)cc3)C(=O)N(C)CC(=O)N[C@@H](CCc3cc(F)c(C(F)(F)F)c(F)c3)C(=O)N2C1 [PP1049]	C (A compound having a KD ratio of 0.1 or more and less than 3 is denoted as C)	C (A compound having a KD ratio of 0.1 or more and less than 3 is denoted as C)	0.91
CCO[C@@H]1C[C@H]2C(=O)NC3(CCCC3)C(=O)N(C)[C@@H](C3CCCC3)C(=O)N(C)[C@H](C(=O)N(C)C)CC(=O)N(C)[C@@H](CC)C(=O)N[C@@H]([C@@H](C)CC)C(=O)N(C)CC(=O)N(C)[C@H]3CC(C)=C(C)CN(C3=O)[C@@H](Cc3ccc(C(F)(F)F)cc3)C(=O)N(C)CC(=O)N[C@@H](CCc3cc(F)c(C(F)(F)F)c(F)c3)C(=O)N2C1 [PP1050]	C (A compound having a KD ratio of 0.1 or more and less than 3 is denoted as C)	C (A compound having a KD ratio of 0.1 or more and less than 3 is denoted as C)	0.94
CCO[C@@H]1C[C@H]2C(=O)NC3(CCC3)C(=O)N(C)[C@@H](C3CCCC3)C(=O)N(C)[C@H](C(=O)N(C)C)CC(=O)N(C)[C@@H](CC)C(=O)N[C@@H]([C@@H](C)CC)C(=O)N(CC)CC(=O)N(C)[C@H]3C/C=C\CCN(C3=O)[C@@H](Cc3ccc(C(F)(F)F)cc3)C(=O)N(C)CC(=O)N[C@@H](CCc3cc(F)c(C(F)(F)F)c(F)c3)C(=O)N2C1 [PP1052]	A (a compound having 10 or more and less than 20 is denoted as A)	A (a compound having 10 or more and less than 20 is denoted as A)	0.25
CCCN1CC(=O)N(C)[C@H]2C/C=C\CCN(C2=O)[C@@H](Cc2ccc(C(F)(F)F)cc2)C(=O)N(C)CC(=O)N[C@@H](CCc2cc(F)c(C(F)(F)F)c(F)c2)C(=O)N2C[C@H](OCC)C[C@H]2C(=O)NC2(CCC2)C(=O)N(C)[C@@H](C2CCCC2)C(=O)N(C)[C@H](C(=O)N(C)C)CC(=O)N(C)[C@@H](CC)C(=O)N[C@@H]([C@@H](C)CC)C1=O [PP1053]	A (a compound having 10 or more and less than 20 is denoted as A)	A (a compound having 10 or more and less than 20 is denoted as A)	0.23
